Measurements reported in US8247211B2, “Glycopeptide antibiotics” (American Cyanamid Company, priority 2001, dated 2012).
≈ marks a conversion by molar mass, not a printed value. Blank lines part the entries; values can stand above or below the compound they belong to.

What was measured:
Experiment in all cases: In vitro antibacterial evaluation: minimum inhibitory concentration (MIC), broth dilution method
Type in all cases: cell-based
Staphylococcus sp. = settings: broth dilution, 18 hours at 35° C.; for MIC Staphylococcus aureus-SMITH (GC 4543): strain SMITH GC 4543
Summary of the method: (§1)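 Using Muller-Hinton II […] and an inoculum of 5×10^5 CFU/mL, antibiotic dilutions from 64 down to 0.06 μg/mL were tested following NCCLS M7-A2. The MIC is the lowest concentration inhibiting growth, including in methicillin-, penicillin- or vancomycin-resistant clinical isolates.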

Streptococcus sp. = settings: broth dilution, 18 hours at 35° C.
Summary of the method: as §1

Enterococcus sp. = settings: broth dilution, 18 hours at 35° C.
Summary of the method: as §1

Escherichia coli = settings: broth dilution, 18 hours at 35° C.
[1] = Streptococcus agalactiae (GC 4564)
[2] = Streptococcus pneumoniae (ATCC 6301)
[3] = Streptococcus pneumoniae (GC 1894)
[4] = Streptococcus pneumoniae (GC 4565)
[5] = Streptococcus pyogenes (GC 4563)
[6] = Enterococcus faecalis (ATCC 29212)
[7] = Enterococcus faecalis (GC 2242)
[8] = Enterococcus faecalis (GC 2691)
[9] = Enterococcus faecalis (GC 3059)
[10] = Enterococcus faecalis (GC 4552)
[11] = Enterococcus faecalis (GC 4553)
[12] = Enterococcus faecalis (GC 4554)
[13] = Enterococcus faecalis (GC 6189)

MIC Coagulase Negative Staphylococcus (GC 4547) (Staphylococcus sp.): 16 µg/mL (≈ 13.8 µM)
MIC Coagulase Negative Staphylococcus (GC 4548) (Staphylococcus sp.): 16 µg/mL (≈ 13.8 µM)
MIC Coagulase Negative Staphylococcus (GC 4549) (Staphylococcus sp.): 4 µg/mL (≈ 3.44 µM)
MIC Coagulase Negative Staphylococcus (GC 4551) (Staphylococcus sp.): 32 µg/mL (≈ 27.5 µM)
MIC Coagulase Negative Staphylococcus (GC 6257) (Staphylococcus sp.): 8 µg/mL (≈ 6.88 µM)
MIC Staphylococcus aureus SMITH (GC 4543) (Staphylococcus sp.): 16 µg/mL (≈ 13.8 µM)
MIC Staphylococcus aureus-SMITH (GC 4543) (Staphylococcus sp.): 16 µg/mL (≈ 13.8 µM)
MIC Streptococcus agalactiae (GC 4564) (Streptococcus sp.; [1]): 32 µg/mL (≈ 27.5 µM)
MIC Streptococcus pneumoniae (ATCC 6301) (Streptococcus sp.; [2]): 32 µg/mL (≈ 27.5 µM)
MIC Streptococcus pneumoniae (GC 1894) (Streptococcus sp.; [3]): 16 µg/mL (≈ 13.8 µM)
MIC Streptococcus pneumoniae (GC 4565) (Streptococcus sp.; [4]): 32 µg/mL (≈ 27.5 µM)
MIC Streptococcus pyogenes (GC 4563) (Streptococcus sp.; [5]): 8 µg/mL (≈ 6.88 µM)
MIC Streptococcus agalactiae (GC 4564) (Streptococcus sp.): 32 µg/mL (≈ 27.5 µM)
MIC Streptococcus pneumoniae (ATCC 6301) (Streptococcus sp.): 32 µg/mL (≈ 27.5 µM)
MIC Streptococcus pneumoniae (GC 1894) (Streptococcus sp.): 16 µg/mL (≈ 13.8 µM)
MIC Streptococcus pneumoniae (GC 4565) (Streptococcus sp.): 32 µg/mL (≈ 27.5 µM)
MIC Streptococcus pyogenes (GC 4563) (Streptococcus sp.): 8 µg/mL (≈ 6.88 µM)
MIC Enterococcus avium (GC 4558) (Enterococcus sp.; Enterococcus avium (GC 4558)): 16 µg/mL (≈ 13.8 µM)
MIC Enterococcus faecalis (ATCC 29212) (Enterococcus sp.; [6]): 64 µg/mL (≈ 55.1 µM)
MIC Enterococcus faecalis (GC 2242) (Enterococcus sp.; [7]): 32 µg/mL (≈ 27.5 µM)
MIC Enterococcus faecalis (GC 2691) (Enterococcus sp.; [8]): 32 µg/mL (≈ 27.5 µM)
MIC Enterococcus faecalis (GC 3059) (Enterococcus sp.; [9]): 32 µg/mL (≈ 27.5 µM)
MIC Enterococcus faecalis (GC 4552) (Enterococcus sp.; [10]): 32 µg/mL (≈ 27.5 µM)
MIC Enterococcus faecalis (GC 4553) (Enterococcus sp.; [11]): 32 µg/mL (≈ 27.5 µM)
MIC Enterococcus faecalis (GC 4554) (Enterococcus sp.; [12]): 32 µg/mL (≈ 27.5 µM)
MIC Enterococcus faecalis (GC 6189) (Enterococcus sp.; [13]): 64 µg/mL (≈ 55.1 µM)
MIC Enterococcus faecium (GC 2243) (Enterococcus sp.; Enterococcus faecium (GC 2243)): 32 µg/mL (≈ 27.5 µM)
MIC Enterococcus faecium (GC 4556) (Enterococcus sp.; Enterococcus faecium (GC 4556)): 64 µg/mL (≈ 55.1 µM)
MIC Enterococcus faecium (GC 4557) (Enterococcus sp.; Enterococcus faecium (GC 4557)): 8 µg/mL (≈ 6.88 µM)
MIC Enterococcus avium (GC 4558) (Enterococcus sp.): 16 µg/mL (≈ 13.8 µM)
MIC Enterococcus faecalis (ATCC 29212) (Enterococcus sp.): 64 µg/mL (≈ 55.1 µM)
MIC Enterococcus faecalis (GC 2242) (Enterococcus sp.): 32 µg/mL (≈ 27.5 µM)
MIC Enterococcus faecalis (GC 2691) (Enterococcus sp.): 32 µg/mL (≈ 27.5 µM)
MIC Enterococcus faecalis (GC 3059) (Enterococcus sp.): 32 µg/mL (≈ 27.5 µM)
MIC Enterococcus faecalis (GC 4552) (Enterococcus sp.): 32 µg/mL (≈ 27.5 µM)
MIC Enterococcus faecalis (GC 4553) (Enterococcus sp.): 32 µg/mL (≈ 27.5 µM)
MIC Enterococcus faecalis (GC 4554) (Enterococcus sp.): 32 µg/mL (≈ 27.5 µM)
MIC Enterococcus faecalis (GC 6189) (Enterococcus sp.): 64 µg/mL (≈ 55.1 µM)
MIC Enterococcus faecium (GC 2243) (Enterococcus sp.): 32 µg/mL (≈ 27.5 µM)
MIC Enterococcus faecium (GC 4556) (Enterococcus sp.): 64 µg/mL (≈ 55.1 µM)
MIC Enterococcus faecium (GC 4557) (Enterococcus sp.): 8 µg/mL (≈ 6.88 µM)
MIC Escherichia coli (ATCC 25922) (Escherichia coli): 64 µg/mL (≈ 55.1 µM)
MIC Escherichia coli (GC 4559) (Escherichia coli): 64 µg/mL (≈ 55.1 µM)
MIC Escherichia coli (GC 4560) (Escherichia coli): 16 µg/mL (≈ 13.8 µM)
SMILES: COc1cc(-c2nc3cc(CC4NC(=O)C(C(C)c5ccccc5)NC(=O)CNC(=O)C(CO)NC(=O)C(C(O)C5CNC(=N)N5C5OC(CO)C(O)C(O)C5O)NC(=O)C(C(O)C5CNC(=N)N5)NC4=O)ccc3o2)cc(OC)c1OC (stereo not drawn) [Example 34, Cyclo[3-[2-(3,4,5-trimethoxyphenyl)-1,3-benzoxazol-5-yl]alanyl-3-(2-iminoimidazolidin-4-yl)seryl-3-(3-hexopyranosyl-2-iminoimidazolidin-4-yl)serylserylglycyl-β-methylphenyl-alanyl]]
MIC Staphylococcus haemolyticus (GC 4546) (Staphylococcus sp.): 8 µg/mL (≈ 6.88 µM)

MIC Coagulase Negative Staphylococcus (GC 4547) (Staphylococcus sp.): 8 µg/mL (≈ 6.7 µM)
MIC Coagulase Negative Staphylococcus (GC 4548) (Staphylococcus sp.): 8 µg/mL (≈ 6.7 µM)
MIC Coagulase Negative Staphylococcus (GC 4549) (Staphylococcus sp.): 8 µg/mL (≈ 6.7 µM)
MIC Coagulase Negative Staphylococcus (GC 4551) (Staphylococcus sp.): 8 µg/mL (≈ 6.7 µM)
MIC Coagulase Negative Staphylococcus (GC 6257) (Staphylococcus sp.): 2 µg/mL (≈ 1.67 µM)
MIC Staphylococcus aureus SMITH (GC 4543) (Staphylococcus sp.): 8 µg/mL (≈ 6.7 µM)
MIC Staphylococcus aureus-SMITH (GC 4543) (Staphylococcus sp.): 8 µg/mL (≈ 6.7 µM)
MIC Streptococcus agalactiae (GC 4564) (Streptococcus sp.; [1]): 8 µg/mL (≈ 6.7 µM)
MIC Streptococcus pneumoniae (ATCC 6301) (Streptococcus sp.; [2]): 8 µg/mL (≈ 6.7 µM)
MIC Streptococcus pneumoniae (GC 1894) (Streptococcus sp.; [3]): 8 µg/mL (≈ 6.7 µM)
MIC Streptococcus pneumoniae (GC 4565) (Streptococcus sp.; [4]): 16 µg/mL (≈ 13.4 µM)
MIC Streptococcus pyogenes (GC 4563) (Streptococcus sp.; [5]): 2 µg/mL (≈ 1.67 µM)
MIC Streptococcus agalactiae (GC 4564) (Streptococcus sp.): 8 µg/mL (≈ 6.7 µM)
MIC Streptococcus pneumoniae (ATCC 6301) (Streptococcus sp.): 8 µg/mL (≈ 6.7 µM)
MIC Streptococcus pneumoniae (GC 1894) (Streptococcus sp.): 8 µg/mL (≈ 6.7 µM)
MIC Streptococcus pneumoniae (GC 4565) (Streptococcus sp.): 16 µg/mL (≈ 13.4 µM)
MIC Streptococcus pyogenes (GC 4563) (Streptococcus sp.): 2 µg/mL (≈ 1.67 µM)
MIC Enterococcus avium (GC 4558) (Enterococcus sp.; Enterococcus avium (GC 4558)): 8 µg/mL (≈ 6.7 µM)
MIC Enterococcus faecalis (ATCC 29212) (Enterococcus sp.; [6]): 16 µg/mL (≈ 13.4 µM)
MIC Enterococcus faecalis (GC 2242) (Enterococcus sp.; [7]): 16 µg/mL (≈ 13.4 µM)
MIC Enterococcus faecalis (GC 2691) (Enterococcus sp.; [8]): 16 µg/mL (≈ 13.4 µM)
MIC Enterococcus faecalis (GC 3059) (Enterococcus sp.; [9]): 32 µg/mL (≈ 26.8 µM)
MIC Enterococcus faecalis (GC 4552) (Enterococcus sp.; [10]): 32 µg/mL (≈ 26.8 µM)
MIC Enterococcus faecalis (GC 4553) (Enterococcus sp.; [11]): 8 µg/mL (≈ 6.7 µM)
MIC Enterococcus faecalis (GC 4554) (Enterococcus sp.; [12]): 32 µg/mL (≈ 26.8 µM)
MIC Enterococcus faecalis (GC 6189) (Enterococcus sp.; [13]): 16 µg/mL (≈ 13.4 µM)
MIC Enterococcus faecium (GC 2243) (Enterococcus sp.; Enterococcus faecium (GC 2243)): 8 µg/mL (≈ 6.7 µM)
MIC Enterococcus faecium (GC 4556) (Enterococcus sp.; Enterococcus faecium (GC 4556)): 32 µg/mL (≈ 26.8 µM)
MIC Enterococcus faecium (GC 4557) (Enterococcus sp.; Enterococcus faecium (GC 4557)): 4 µg/mL (≈ 3.35 µM)
MIC Enterococcus avium (GC 4558) (Enterococcus sp.): 8 µg/mL (≈ 6.7 µM)
MIC Enterococcus faecalis (ATCC 29212) (Enterococcus sp.): 16 µg/mL (≈ 13.4 µM)
MIC Enterococcus faecalis (GC 2242) (Enterococcus sp.): 16 µg/mL (≈ 13.4 µM)
MIC Enterococcus faecalis (GC 2691) (Enterococcus sp.): 16 µg/mL (≈ 13.4 µM)
MIC Enterococcus faecalis (GC 3059) (Enterococcus sp.): 32 µg/mL (≈ 26.8 µM)
MIC Enterococcus faecalis (GC 4552) (Enterococcus sp.): 32 µg/mL (≈ 26.8 µM)
MIC Enterococcus faecalis (GC 4553) (Enterococcus sp.): 8 µg/mL (≈ 6.7 µM)
MIC Enterococcus faecalis (GC 4554) (Enterococcus sp.): 32 µg/mL (≈ 26.8 µM)
MIC Enterococcus faecalis (GC 6189) (Enterococcus sp.): 16 µg/mL (≈ 13.4 µM)
MIC Enterococcus faecium (GC 2243) (Enterococcus sp.): 8 µg/mL (≈ 6.7 µM)
MIC Enterococcus faecium (GC 4556) (Enterococcus sp.): 32 µg/mL (≈ 26.8 µM)
MIC Enterococcus faecium (GC 4557) (Enterococcus sp.): 4 µg/mL (≈ 3.35 µM)
MIC Escherichia coli (GC 4560) (Escherichia coli): 16 µg/mL (≈ 13.4 µM)
SMILES: COc1ccc(Oc2cccc(-c3nc4cc(CC5NC(=O)C(C(C)c6ccccc6)NC(=O)CNC(=O)C(CO)NC(=O)C(C(O)C6CNC(=N)N6C6OC(CO)C(O)C(O)C6O)NC(=O)C(C(O)C6CNC(=N)N6)NC5=O)ccc4o3)c2)cc1 (stereo not shown) [Example 35]
MIC Staphylococcus haemolyticus (GC 4546) (Staphylococcus sp.): 8 µg/mL (≈ 6.7 µM)
